# Laboratory results: patent US6057324A, “Substituted amidinobenzene derivatives and medicinal compositions thereof” (Yamanouchi Pharmaceutical Co., Ltd, priority 1996, dated 2000)
# Assays:
# [1] = system: platelets; test: Ex vivo platelet aggregation-inhibiting activity in cynomolgus monkeys; conditions: 1 mg/kg via stomach tube, triggers 20 μM ADP and 10 μg/ml collagen
# Method: Cynomolgus monkeys that had been lightly anesthetized by intramuscular administration of ketamine hydrochloride were fixed on a work-bench, and a sample compound of the present invention dissolved or suspended in a methylcellulose solution was administered into the stomach via a stomach tube at a dose of 1 mg/kg. Before the administration and after the administration at a predetermined period of time, 3 ml (containing 1/10 times by volume of sodium citrate) of the blood was collected from the animal through the femoral vein. From the blood, platelet-rich-plasma (PRP) was obtained according to the method of De Marco et al's (see J. clin. Invest., 77, 1272-1277, 1986). The PRP was adjusted at 3×10^8 /ml with an automatic blood cell counter (MEK-5158 Model, produced by Nihon Koden Co.) before use. Then, 20 μM of ADP and 10 μg/ml of bovine tendon-derived collagen (produced by Niko Bioscience Co.) as triggers to cause the aggregation of the platelets. The degree of the aggregation of the platelets was measured with a platelet aggregation meter (NBS Hematracer 801, produced by Niko Bioscience Co.). The platelet aggregation-inhibiting activity of the tested compound was represented by the inhibition percentage (%) relative to the maximum aggregation percentage of each animal before the addition of the test compound.
# The test results are shown in Table 2 together with the results of the Compound A which is the active body of the compounds of the present invention.
# [2] = Metabolic test of an active body (Compound A) in plasma after oral administration to beagle dogs; format: in vivo; conditions: 10 mg/kg
# Method: Compound of Example 2 of the present invention was administered to three beagle dogs orally at a dose of 10 mg/kg as an aqueous solution and then blood was withdrawn over 48 hours after administration. After centrifugation, plasma was separated and then stored at -20° C. until analysis. Compound A (compound name: 4-[4-(4-amidinophenyl)-3-oxo-1-piperazinyl]-1-piperidineacetic acid, an unexamined published Japanese patent application No. 8-333342), which is an active body produced as a metabolite of Compound of Example 2, was determined by the high performance liquid chromatography method to obtain the pharmacokinetic parameters. Compound A was also administered to the same beagle dogs at a dose of 10 mg/kg, and then plasma Compound A concentration was measured. Pharmacokinetic parameters of Compound A after the administration of Compound of Example 2 and Compound A were compared-with each other. In Table 1 it is shown the pharmacokinetic parameters of plasma Compound A after oral administration, and in FIG. 1 it is shown the plasma concentration-time profile of Compound A after oral administration.
# Table 1 represents Pharmacokinetic parameters of plasma Compound A after oral administration of Compound of Example 2 and Compound A to beagle dogs at a dose of 10 mg/kg (mean of three animals±standard deviation) and FIG. 1 represents plasma concentration-time profile of Compound A.
bioavailability of Compound A when administered as prodrug (in words) [2],plasma residence time of Compound A when administered as prodrug (in words) [2],t1/2 of Compound A compared with administration of Compound A (in words) [2],"AUC(0-t) at 48 h ([2]; dog, plasma, mean of three animals ± standard deviation, analyte Compound A, read-out: AUC0-48 (area under the time-concentration curve in plasma over 48 hours) of Compound A) [ng·h/mL]","Cmax ([2]; dog, plasma, mean of three animals ± standard deviation, analyte Compound A, read-out: Cmax (maximum plasma concentration) of plasma Compound A) [ng/mL]","Tmax ([2]; dog, plasma, mean of three animals ± standard deviation, analyte Compound A, read-out: Tmax (time to reach Cmax) of plasma Compound A) [h]","half-life ([2]; dog, plasma, mean of three animals ± standard deviation, analyte Compound A, read-out: t1/2 (elimination half life) of plasma Compound A (converted)) [min]",SMILES,Platelet aggregation-inhibiting ratio after 3 hours [1] [%],Platelet aggregation-inhibiting ratio after 6 hours [1] [%],Platelet aggregation-inhibiting ratio after 9 hours [1] [%],Platelet aggregation-inhibiting ratio after 12 hours [1] [%],Platelet aggregation-inhibiting ratio after 24 hours [1] [%]
increase,increase,greatly prolonged,,,,,"CCOC(=O)CN1CCC(N2CCN(c3ccc(C(=N)NO)cc3)C(=O)C2)CC1 [Example 2, ethyl 4-[4-(4-hydroxyamidinophenyl)-3-oxo-1-piperazinyl]-1-piperidineacetate]",24.7 ± 23.7,66.3 ± 15.4,88.0 ± 11.0,89.0,54.0 ± 9.0
,,,,,,,"CCOC(=O)CN1CCC(N2CCN(c3ccc(C(=N)NC(=O)OC)cc3)C(=O)C2)CC1 [Example 7, Ethyl 4-[4-(4-methoxycarbonylamidinophenyl)-3-oxo-1-piperazinyl]-1-piperidineacetate]",9.0 ± 5.7,42.0 ± 14.7,60.0 ± 15.6,64.3,26.0 ± 2.9
,,,3550 ± 838,748 ± 175,1.7 ± 0.6,126,"N=C(N)c1ccc(N2CCN(C3CCN(CC(=O)O)CC3)CC2=O)cc1 [Compound A, 4-[4-(4-amidinophenyl)-3-oxo-1-piperazinyl]-1-piperidineacetic acid]",19.7 ± 9.4,16.3 ± 7.5,14.2 ± 5.9,,
